Experimental data taken from ChEMBL document CHEMBL1201862, “PubChem BioAssay data set” (2004).
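Method: 48-hour compound exposure of cells in 96-well plates, five concentrations, linear interpolation of endpoints. GI50 = concentration required for 50% inhibition of growth.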 Activity calls are given as the source filed them. Cut-off read from the data, not from the text of the source: active = GI50 up to about 1.1 µM and inactive = higher.

Assays:
Experiment in all cases: NCI-60 cell line screen, 48 h
[1] = system: PC-3
[2] = system: A498
[3] = system: HCT-15
[4] = system: MOLT-4
[5] = system: NCI-H522
[6] = system: SF-295
[7] = system: UACC-62
[8] = system: SF-268
[9] = system: MCF7
[10] = system: UACC-257
[11] = system: HT-29
[12] = system: SK-MEL-5
[13] = system: HL-60
[14] = system: SK-MEL-28
[15] = system: UO-31
[16] = system: Hs-578T
[17] = system: Malme-3M
[18] = system: TK-10
[19] = system: CCRF-CEM
[20] = system: SNB-75
[21] = system: HCT-116
[22] = system: LOX IMVI
[23] = system: NCI-H23
[24] = system: NCI/ADR-RES
[25] = system: T47D
[26] = system: OVCAR-4
[27] = system: ACHN
[28] = system: K562
[29] = system: SK-MEL-2
[30] = system: IGROV-1
[31] = system: OVCAR-3
[32] = system: NCI-H460
[33] = system: 786-0
[34] = system: DU-145
[35] = system: HOP-62
[36] = system: EKVX
[37] = system: SW-620
[38] = system: A549
[39] = system: SF-539
[40] = system: RPMI-8226
[41] = system: OVCAR-8
[42] = system: COLO 205
[43] = system: HOP-92
[44] = system: RXF 393
[45] = system: OVCAR-5
[46] = system: BT-549
[47] = system: MDA-MB-435
[48] = system: HCC 2998
[49] = system: M14
[50] = system: KM12
[51] = system: U-251
[52] = system: SNB-19
[53] = system: NCI-H226
[54] = system: MDA-MB-231
[55] = system: SK-OV-3
[56] = system: CAKI-1
[57] = system: SR

For `O=S1(=O)C(c2ccccc2)=C(O)c2ccccc21`, the GI50 [1] was > 100 µM (inactive), the GI50 [2] was > 100 µM (inactive) and the GI50 [3] was greater than 100 µM. The GI50 [4] was > 100 µM (inactive), the GI50 [5] was > 100 µM (inactive) and the GI50 [6] was > 100 µM (inactive). The GI50 [7] was > 100 µM (inactive), the GI50 [8] was > 100 µM (inactive) and the GI50 [9] was > 100 µM (inactive). The GI50 [10] was > 100 µM (inactive), the GI50 [11] was > 100 µM (inactive) and the GI50 [12] was > 100 µM (inactive). For the same compound, the GI50 [13] was > 100 µM (inactive), the GI50 [14] was > 100 µM (inactive) and the GI50 [15] was > 100 µM (inactive). The GI50 [16] was > 100 µM (inactive), the GI50 [17] was > 100 µM (inactive) and the GI50 [18] was > 100 µM (inactive). For the same compound, the GI50 [19] was > 100 µM (inactive), the GI50 [20] was > 100 µM (inactive) and the GI50 [21] was > 100 µM (inactive). The GI50 [22] was > 100 µM (inactive), the GI50 [23] was > 100 µM (inactive) and the GI50 [24] was > 100 µM (inactive). For the same compound, the GI50 [25] was > 100 µM (inactive), the GI50 [26] was > 100 µM (inactive) and the GI50 [27] was > 100 µM (inactive). For the same compound, the GI50 [28] was > 100 µM (inactive), the GI50 [29] was > 100 µM (inactive) and the GI50 [30] was > 100 µM (inactive). For the same compound, the GI50 [31] was > 100 µM (inactive), the GI50 [32] was > 100 µM (inactive) and the GI50 [33] was > 100 µM (inactive). For the same compound, the GI50 [34] was > 100 µM (inactive), the GI50 [35] was > 100 µM (inactive) and the GI50 [36] was > 100 µM (inactive). The GI50 [37] was > 100 µM (inactive), the GI50 [38] was > 100 µM (inactive) and the GI50 [39] was > 100 µM (inactive). The GI50 [40] was > 100 µM (inactive), the GI50 [41] was > 100 µM (inactive) and the GI50 [42] was > 100 µM (inactive). The GI50 [43] was > 100 µM (inactive), the GI50 [44] was 35.8 µM (inactive) and the GI50 [45] was > 100 µM (inactive). For the same compound, the GI50 [46] was > 100 µM (inactive), the GI50 [47] was > 100 µM (inactive) and the GI50 [48] was > 100 µM (inactive). The GI50 [49] was > 100 µM (inactive), the GI50 [50] was > 100 µM (inactive) and the GI50 [51] was > 100 µM (inactive). The GI50 [52] was > 100 µM (inactive), the GI50 [53] was > 100 µM (inactive) and the GI50 [54] was 7.91 µM (inactive).
In the case of `O=C(O)c1ccc2nc(-c3ccccn3)c(-c3ccccn3)nc2c1`, the GI50 [1] is reported as > 100 µM (inactive), the GI50 [2] is reported as > 100 µM (inactive) and the GI50 [3] is reported as greater than 100 µM. The GI50 [4] was > 100 µM (inactive), the GI50 [55] was > 100 µM (inactive) and the GI50 [6] was > 100 µM (inactive). For the same compound, the GI50 [7] was > 100 µM (inactive), the GI50 [8] was > 100 µM (inactive) and the GI50 [9] was > 100 µM (inactive). The GI50 [10] was > 100 µM (inactive), the GI50 [11] was > 100 µM (inactive) and the GI50 [12] was > 100 µM (inactive). The GI50 [13] was > 100 µM (inactive), the GI50 [14] was > 100 µM (inactive) and the GI50 [15] was > 100 µM (inactive). For the same compound, the GI50 [16] was > 100 µM (inactive), the GI50 [18] was > 100 µM (inactive) and the GI50 [19] was > 100 µM (inactive). The GI50 [20] was > 100 µM (inactive), the GI50 [21] was > 100 µM (inactive) and the GI50 [56] was > 100 µM (inactive). The GI50 [22] was > 100 µM (inactive), the GI50 [23] was > 100 µM (inactive) and the GI50 [24] was > 100 µM (inactive). The GI50 [25] was > 100 µM (inactive), the GI50 [26] was > 100 µM (inactive) and the GI50 [27] was > 100 µM (inactive). The GI50 [28] was > 100 µM (inactive), the GI50 [29] was > 100 µM (inactive) and the GI50 [30] was > 100 µM (inactive). For the same compound, the GI50 [32] was > 100 µM (inactive), the GI50 [33] was > 100 µM (inactive) and the GI50 [34] was > 100 µM (inactive). The GI50 [35] was > 100 µM (inactive), the GI50 [36] was > 100 µM (inactive) and the GI50 [57] was > 100 µM (inactive). The GI50 [37] was > 100 µM (inactive), the GI50 [39] was > 100 µM (inactive) and the GI50 [40] was > 100 µM (inactive). For the same compound, the GI50 [41] was > 100 µM (inactive), the GI50 [42] was > 100 µM (inactive) and the GI50 [43] was > 100 µM (inactive). For the same compound, the GI50 [44] was > 100 µM (inactive), the GI50 [46] was > 100 µM (inactive) and the GI50 [47] was > 100 µM (inactive). The GI50 [48] was > 100 µM (inactive), the GI50 [49] was > 100 µM (inactive) and the GI50 [50] was > 100 µM (inactive). For the same compound, the GI50 [51] was > 100 µM (inactive), the GI50 [52] was > 100 µM (inactive) and the GI50 [53] was > 100 µM (inactive). For the same compound, the GI50 [54] was > 100 µM (inactive).
